# Measured values reported in publication PMC6345779, “Hypoculoside, a sphingoid base-like compound from Acremonium disrupts the membrane integrity of yeast cells” (Scientific Reports, 2019).
# Assays:
# [1] = system: Saccharomyces cerevisiae diploid wild-type strain (BY4743); test: Growth inhibition of wild type Saccharomyces cerevisiae in YPD medium (96-well, OD600); assay type: cell-based; conditions: for concentration that completely inhibited the growth of wild type yeast cells: 24 hours at 30 °C (Fig. 5B); for inhibitory concentration relative to inhibitory concentration of hypoculoside: wild type yeast cells, higher than hypoculoside
# Description: (§1) Figure 5 Structure-activity studies of hypoculoside. (A) Wild type strain (BY4743), vps35Δ, pep8Δ, vps20Δ, vps27Δ and vps36Δ strains were grown in YPD medium in the presence of hypoculoside or hypoculine at the indicated concentrations. Normalized growth at the different concentrations of hypoculoside and hypoculine tested after 24 hours of incubation at 30 °C is plotted for each strain. (B) Wild type strain (BY4743), vps35Δ, pep8Δ, vps20Δ, vps27Δ and vps36Δ strains were grown in YPD medium in the presence of hypoculoside or phytosphingosine or dihydrosphingosine at the indicated concentrations. Normalized growth at the different concentrations of hypoculoside, phytosphingosine and dihydrosphingosine tested after 24 hours of incubation at 30 °C is plotted for each strain.
# Susceptibility of Candida albicans strain SC5314 to hypoculoside and amphotericin B was determined by a broth microdilution assay using Clinical Laboratory Standards Institute (CLSI) guidelines. Cells grown to exponential phase in YPD medium (1% Yeast extract, 2% Bacto peptone and 2% glucose) were harvested, washed and resuspended in RPMI 1640 medium at a density of 2×10^3 cells/mL. RPMI 1640 medium with L-glutamine without sodium bicarbonate (Sigma) was buffered with 0.165 M morpholinepropanesulfonic acid (MOPS) to a pH of 7.0. Two-fold dilutions of hypoculoside and amphotericin B were prepared such that final concentration of DMSO was 1% in all cultures. Cell suspension was distributed in microtiter plate (200 µL/well) and incubated at 35 °C with 220 rpm for 24 h. The Saccharomyces cerevisiae diploid wild-type strain (BY4743) was used for determining the Inhibitory Concentration (IC) of hypoculoside. Frozen yeast cells were allowed to recover on YPD agar plates and grown in YPD medium for nine generations (OD600 nm ≤ 2). Cells were diluted to OD600 nm of 0.0625 in YPD medium. 200 μL of the diluted yeast culture was transferred into the 96-well microtiter plate having 2-fold serially diluted concentrations of hypoculoside. Cells were incubated in a microplate reader for 16–24 hours at 30 °C with shaking. IC of hypoculoside was computed by comparing the growth of treated versus control cells.
# [2] = system: vps35Δ, pep8Δ, vps20Δ, vps27Δ and vps36Δ strains; test: Single-mutant sensitivity growth assay of deletion strains in YPD medium; assay type: cell-based, Saccharomyces cerevisiae; conditions: for growth of the 5 hypoculoside-sensitive mutants compared with wild type strain: 20 µM, vps35, pep8, vps20, vps27, vps36
# Description: Figure 3 Homozygous profiling of hypoculoside in Saccharomyces cerevisiae. (A) logFC (Fitness Coefficient) was plotted against P-value for the 3702 mutants that were analyzed by HOP. The more negative the logFC value of a mutant, more sensitive is the mutant to hypoculoside. Mutants that have logFC < −0.5 and P-value < 0.05 are indicated by red dots and the remaining strains are indicated as blue dots. For the sake of clarity, gene names of only a subset of the top hits are indicated in the plot. (B) Wild type strain BY4743 and 24 deletion strains that were sensitive to hypoculoside in the HOP assay, were grown in the YPD medium in the presence of either DMSO or hypoculoside at different concentrations (0, 0.6, 1.3, 2.7 and 5.5 µM). Normalized growth at the different concentrations of hypoculoside tested after 24 hours of incubation at 30 °C is plotted for each strain.
# To test the validity of our HOP data, we first identified 336 ‘hypoculoside-sensitive’ mutants (Supplementary Table S1) that had at least a 1.4-fold inhibitory effect on their growth rate (i.e. logFC ≤ −0.5) with a P-value ≤ 0.05. From the list of 336 mutants, we chose 24 mutants that represent different Gene Ontology categories (see below) and tested their sensitivity to hypoculoside. Eighteen of the total 24 mutants were sensitive to hypoculoside confirming the HOP data (Fig. 3B). We also tested mutants that were predicted to be resistant to hypoculoside (positive logFC ≥ 0.5 and P-value ≤ 0.05). But none of them were resistant to hypoculoside in comparison to wild type strain in the single-mutant sensitivity assays (data not shown).
# as §1
# [3] = system: Wild type strain (BY4743); test: Rescue of myriocin-induced growth inhibition in yeast; assay type: cell-based, Saccharomyces cerevisiae; conditions: for rescue of myriocin-induced inhibition: added at 10 μM
# Description: Myriocin is an inhibitor of Serine palmitoyltransferase (SPT), which catalyzes the first step in the synthesis of sphingolipid biosynthesis. Addition of PHS or DHS can rescue inhibition caused by myriocin[28]. We tested whether hypoculoside can rescue the toxicity of myriocin–treated cells.
# Wild type strain (BY4743) was grown in YPD medium containing different concentrations of myriocin and either phytosphingosine (PHS) or dihydrosphingosine (DHS) or hypoculoside (HYP) at the indicated concentrations. Normalized growth at the different concentrations after 24 hours of incubation at 30 °C is plotted for the various cultures.
# Staphylococcus aureus = system: Staphylococcus aureus; set-up: method as in PMID 23128426; conditions: also disrupt cell membrane; cited from earlier work
# fungi = system: fungi; set-up: method as in PMID 10654417; conditions: cited from earlier work
# [4] = system: Candida albicans strain SC5314; test: Broth microdilution growth inhibition of Candida albicans (CLSI guidelines, OD600 after 24 h); assay type: cell-based; conditions: strain SC5314, OD600 nm after 24 hours, read-out: IC50 for inhibition of growth of C. albicans cells
# Description: Figure 2 Hypoculoside has antifungal activity. (A) Workflow used in the purification and analysis of hypoculoside from Acremonium sp. F2434. (B) Structure of hypoculoside (8) and its aglycone derivative hypoculine (9). (C) Logarithmically growing Candida albicans cells were exposed to hypoculoside and amphotericin B at various concentrations in triplicates in a 96-well microplate. Growth of the cells was quantified by recording the absorbance at 600 nm after 24 hours. Growth (normalized with respect to DMSO-treated cells) is plotted against log of concentration of the compound. A picture of the microplate after 24 hours of incubation at 30 °C is shown in Supplementary Fig. S2A. (D) Effect of hypoculoside on the growth of Saccharomyces cerevisiae cells grown in YPD medium was analyzed in the similar way as for Candida albicans described above in C.
# We evaluated the potency of hypoculoside by examining its effect on the growth of Candida albicans strain (SC5314) using the Clinical and Laboratory Standards Institute (CLSI) guidelines. We used the well-known antifungal amphotericin B as a positive control. We exposed logarithmically growing Candida albicans cells to hypoculoside and amphotericin B at various concentrations and monitored the growth by recording the OD600 nm after 24 hours. […]
# [5] = system: vacuoles of wild type yeast cells; test: FM 4-64 fluorescence microscopy of vacuolar structure; assay type: cell-based, Saccharomyces cerevisiae; conditions: 11.6 µM, FM 4-64 pre-labelled wild type cells, N = 100 cells
# Description: As several vacuolar transport mutants were sensitive to hypoculoside (Fig. 3), we examined the effect of hypoculoside on the vacuolar structure of yeast cells. We incubated wild type yeast cells with FM 4–64, a dye that stains the vacuolar membranes, for 1 hour. We then washed off the excess FM 4–64 from the medium and transferred the cells into fresh medium with either hypoculoside or hypoculine or DMSO. […] In contrast, about 50% of 11.6 µM hypoculoside-treated cells had defective vacuoles (Fig. 7B). However, only 3% of 11.6 µM hypoculine-treated cells had defective vacuoles. Thus, the effect of hypoculoside and hypoculine on vacuolar structure correlates with their inhibitory activities.
# Figure 7 Hypoculoside but not hypoculine disrupts the vacuolar structure of yeast cells. Wild type yeast cells containing vacuoles pre-labelled with the lipophilic dye FM 4-64 were exposed to either DMSO or hypoculoside or hypoculine at the indicated concentrations for 1 hour. Effects of the compounds on vacuolar morphology was analyzed by fluorescence microscopy. […] (B) Quantification of the various categories for cells treated with either DMSO or hypoculoside or hypoculine is plotted (N = 100 cells). […]
# Labeling of yeast cells with FM4-64 (Invitrogen) was done as previously reported. […] The images were acquired using an inverted fluorescence microscope ZEISS LSM 5 LIVE (Carl Zeiss, Oberkochen, Germany).
# BY4743 cells = test: Propidium iodide (PI)-staining assay of plasma membrane integrity; assay type: cell-based, Saccharomyces cerevisiae; conditions: 1.8, 3.5 and 5.3 µM, 30′ and 2 hours
# Description: Figure 8 Hypoculoside but not hypoculine disrupts the membrane integrity of yeast cells. (A) Wild type yeast cells pre-treated with either DMSO or hypoculoside (5.4 μM) were exposed to FM 4-64FX. Uptake of FM 4-64FX after 0′, 30′ and 120′ was analyzed by fluorescence microscopy of fixed cells. (B) Yeast cells were incubated with either DMSO or hypoculoside or hypoculine at different concentrations (1.8, 3.5 and 5.3 µM) for 30′ and 2 hours. They were then treated with propidium iodide (PI) and percentage of PI-staining cells was assayed by fluorescence microscopy. Representative images of cells visualized by bright field and fluorescence microscopy are shown along with quantification of PI-staining cells (N = 100 cells) in (C).
# We then tested whether hypoculoside causes membrane leakage using the membrane impermeant dye propidium iodide (PI). […] We then incubated the cells with PI and visualized its uptake by fluorescence microscopy. […]
# BY4743 cells (OD600 nm ≈ 1) were exposed to various concentrations of hypoculoside or hypoculine or DMSO in YPD for 30′ and 2 hours. […] PI uptake by cells was assayed by bright-field and fluorescence microscopy [Excitation/Emission (nm): 535/617] and the percentage of PI-staining cells (N ≥ 100) was calculated.
# cancer cell lines = system: cancer cell lines; set-up: method as in PMID 18343365; conditions: cited from earlier work
structure (smiles),measurement,setting,value
"CCCCCCCCCCCCCCC[C@@H](O)[C@@H](N)CO [DHS, dihydrosphingosine, reference compound]",concentration that completely inhibited the growth of wild type yeast cells,"[1]; BY4743, YPD",40 µM
same,inhibitory concentration relative to inhibitory concentration of hypoculoside,[1],about 4 fold
same,growth of the 5 hypoculoside-sensitive mutants compared with wild type strain,[2],lower in comparison to wild type strain
same,rescue of myriocin-induced inhibition,[3],completely rescued
same,growth inhibition of Staphylococcus aureus,Staphylococcus aureus,inhibit the growth
CCCCCCC(=O)CCCCCC/C=C/C[C@@H](O)[C@H](O)[C@@](N)(CO)C(=O)O [Myriocin],concentration that inhibited the growth of yeast cells,"[3]; wild type BY4743, YPD, 24 hours at 30 °C",3.11 µM
C[C@@H](N)[C@H](O)CCCCCCCCCCCCCCC(=O)CCCCCCC[C@@H](O)[C@@H](N)CO [Oceanin],toxicity to fungi compared with oceanapiside,fungi,considerably more toxic to fungi
"CCCCCCCCCCCCCC[C@@H](O)[C@@H](O)[C@@H](N)CO [PHS, phytosphingosine, reference compound]",concentration that completely inhibited the growth of wild type yeast cells,"[1]; BY4743, YPD",40 µM
same,inhibitory concentration relative to inhibitory concentration of hypoculoside,[1],about 4 fold
same,growth of the 5 hypoculoside-sensitive mutants compared with wild type strain,[2],lower in comparison to wild type strain
same,rescue of myriocin-induced inhibition,[3],completely rescued
same,growth inhibition of Staphylococcus aureus,Staphylococcus aureus,inhibit the growth
"C[C@@H]1[C@H](O)[C@@H](C)/C=C/C=C/C=C/C=C/C=C/C=C/C=C/[C@H](O[C@@H]2O[C@H](C)[C@@H](O)[C@H](N)[C@@H]2O)C[C@@H]2O[C@](O)(C[C@@H](O)C[C@@H](O)[C@H](O)CC[C@@H](O)C[C@@H](O)CC(=O)O[C@H]1C)C[C@H](O)[C@H]2C(=O)O [amphotericin B, reference compound]",IC50,[4],32 nM
CC(N)C(O)CCCCCCCCCCCCCCCCCCC(O)C(C)O (stereo not shown) [hypoculine],concentration that inhibited the growth of wild type cells,"[1]; BY4743, YPD, 24 hours at 30 °C (Fig. 5A)",> 200 µM
same,concentration at which mutants still displayed significant growth,"[2]; mutants except for pep8 and vps35 (vps20, vps27, vps36), YPD, 24 hours at 30 °C",> 200 µM
same,cells with defective vacuoles,[5],3%
same,cells with PI staining,BY4743 cells,less than 10%
"CCCCCCCCCCCCC/C=C/[C@@H](O)[C@@H](N)CO [sphingosine, (2S,3R,4E)-2-amino-4-octadecen-1,3-diol]",growth inhibition of Staphylococcus aureus,Staphylococcus aureus,inhibit the growth
"CCCCCCCCCCCCCCC[C@@H](O)[C@H](C)N [spisulosine, 1-deoxysphinganine]",activity against cancer cell lines,cancer cell lines,potent activity
